# Test results taken from patent US8772323B2, “Benzoxazole- and tetrahydrobenzoxazole-substituted pyridazinones as GPR119 agonists” (Boehringer Ingelheim International GmbH, priority 2010, dated 2014).
# Legend:
# human GPR119 = human GPR119 (Homo sapiens (Human), UniProt Q8TDV5); assay: AlphaScreen cAMP assay in Min-6/hGPR119 cells (GPR119 activation, intracellular cAMP); assay type: cell-based; conditions: MIN6 cells stably transfected with human GPR119; 45 minutes' incubation at RT; AlphaScreen cAMP Assay Kit
# human GPR119, sequence (Q8TDV5 whole entry): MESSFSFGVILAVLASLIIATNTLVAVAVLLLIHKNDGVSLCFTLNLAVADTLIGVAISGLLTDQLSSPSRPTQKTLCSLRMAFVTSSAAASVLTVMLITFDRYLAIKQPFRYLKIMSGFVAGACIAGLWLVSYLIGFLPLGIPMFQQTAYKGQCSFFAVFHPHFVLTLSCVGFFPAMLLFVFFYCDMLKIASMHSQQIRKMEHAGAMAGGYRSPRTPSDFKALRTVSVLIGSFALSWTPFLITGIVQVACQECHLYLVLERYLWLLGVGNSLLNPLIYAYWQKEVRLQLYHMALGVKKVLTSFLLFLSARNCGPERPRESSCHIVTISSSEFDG
# Method in brief: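 cAMP quantified by AlphaScreen after 45 min room-temperature compound exposure in HEPES/bicarbonate buffer, pH 7.4, containing 0.5 mM IBMX, 0.1% BSA and 1% DMSO final. Cells were Min-6 stably transfected with human GPR119, seeded 24 h beforehand.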
melting point [°C],EC50 (human GPR119) [nM],Structure (SMILES)
209,3450,"CC1CC(=O)NN=C1c1ccc2nc(N3CCOCC3)oc2c1 (centres unmarked) [Example 116, 5-methyl-6-(2-morpholine-1-yl-benzoxazol-6-yl)-4,5-dihydro-2H-pyridazin-3-one]"
213,9390,"CC1CC(=O)NN=C1c1ccc2nc(N3CCNCC3)oc2c1 (centres unmarked) [Example 117, 5-methyl-6-(2-piperazin-1-yl-benzoxazol-6-yl)-4,5-dihydro-2H-pyridazin-3-one]"
268,1340,"CC1CC(=O)NN=C1c1ccc2nc(-c3ccc(Cl)nc3Cl)oc2c1 (centres unmarked) [Example 120, 6-[2-(2,6-dichloro-pyridin-3-yl)-benzoxazol-6-yl]-5-methyl-4,5-dihydro-2H-pyridazin-3-one]"
236,379,"CC1CC(=O)NN=C1c1ccc2nc(-c3ccc(N4CCOCC4)nc3Cl)oc2c1 (centres unmarked) [Example 121, 6-[2-(2-chloro-6-morpholin-4-yl-pyridin-3-yl)-benzoxazol-6-yl]-5-methyl-4,5-dihydro-2H-pyridazin-3-one]"
